These results are taken from patent publication US7112593B2, “N-aryl-substituted cyclic amine derivative and medicine containing the same as active ingredient” (Eisai Co., Ltd., priority 2001, dated 2006).

One assay deals with rat liver cell. Briefly: Measurement of cholesterol biosynthesis inhibitive activity in a rat liver cell. Conditions: isolated male SD rat liver cells, [1-14C]acetic acid incorporation into free cholesterol. Type of assay: cell-based. The protocol: Measurement of Cholesterol Biosynthesis Inhibitive Activity in a Rat Liver Cell
A liver cell was isolated from a male SD rat according to a usual method (collagenase perfusion method) and subjected to an experiment.
The isolated liver cells were planted in an amount of 500 μl every well on a Type collagen coated 24 well plate (cell density: 4×10^5 cell/ml). As the cell culture solution, a Williams' E medium (adjusted to pH 7.4) containing 10% FCS, 1 μM insulin, 1 μM dexamethasone, 100 units/ml penicillin and 100 μg/ml streptomycin was used. After the liver cells were incubated in a CO2 incubator for 2 hours, unattached cells were removed and the liver cells were further incubated overnight.
After the culture medium was exchanged, the specimen diluted in a 10% DMSO-90% cell culture solution was added to each well inan amount of 5 μl. DMSO (final concentration: 0.1%) was added toacontrolgroup. A [1-^14C]Aceticacid, sodiumsalt (5 μCi/well) was added to the media 10 minutes after the specimen was added, followed by culturing for further 2 hours. […]
After the development was finished, the TLC plate was subjected to iodine color development. […] This transferred image was analyzed using a BAS 2000 IP Reader and an Imaging analyzer II to measure radio activities contained in the free cholesterol fractions. […]

The target in a further assay is T1, Squalene synthase (Rattus norvegicus, UniProt Q02769).
T1 construct: the obtained residue was used as a microsome fraction; from tissue; host or cells: liver microsome fraction of male Sprague-Dawley rat (8 to 9 weeks in age)
T1 sequence (Q02769 1-416): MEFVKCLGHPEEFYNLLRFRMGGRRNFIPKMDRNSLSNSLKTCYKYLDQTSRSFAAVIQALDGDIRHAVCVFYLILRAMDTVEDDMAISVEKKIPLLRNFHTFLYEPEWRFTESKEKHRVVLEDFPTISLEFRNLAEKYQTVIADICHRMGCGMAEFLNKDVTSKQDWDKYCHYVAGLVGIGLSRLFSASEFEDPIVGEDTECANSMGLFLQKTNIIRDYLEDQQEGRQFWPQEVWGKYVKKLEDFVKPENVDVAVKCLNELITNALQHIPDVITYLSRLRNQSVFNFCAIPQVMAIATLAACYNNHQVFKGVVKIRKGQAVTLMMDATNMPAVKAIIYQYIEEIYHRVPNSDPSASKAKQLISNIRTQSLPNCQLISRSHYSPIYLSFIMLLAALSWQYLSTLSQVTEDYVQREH
Briefly: Measurement of squalene synthase inhibitive activity by using a rat liver microsome. Conditions: [3H]-farnesylpyrophosphoric acid. Type of assay: biochemical. The protocol:
Measurement of Squalene Synthase Inhibitive Activity by Using a Rat Liver Microsome
(I) The reaction was run on a scale of 500 μl. 200 μl of a solution containing 125 mM tris-hydrochloric acid (pH: 7.3), 2.5 mM magnesium chloride, 5 mM potassium fluoride and 10 mM reduction type nicotinamidoadenine dinucleotide phosphoric acid, 100 μl of the specimen solution with a 5-fold concentration, 100 μl of distilled water and 50 μl of 0.4 to 1 mg/ml rat liver microsome prepared by the following method were mixed.
(II) The above mixture was pre-incubated at 37° C. for 10 minutes and thereafter, 50 μl of 100 μM [^3H]-farnesylpyrophosphoric acid (30 mCi/mmol, NEN) was added to the mixture to start a reaction. The reaction was continued at 37° C. for 10 minutes. 1 ml of ethanol was added to the resulting mixture to terminate the reaction and then 1 ml of distilled water and 3 ml of petroleum ether were added to the reaction solution, which was then shaken for 30 minutes. The water phase was separated from the organic phase, the water phase was frozen at −70° C. in dry ice/methanol and the radio activity of the organic phase was measured using a liquid scintillator. Or the organic phase was evaporated to dryness using nitrogen gas and the residue was dissolved as a marker in 25 μl of chloroform containing squalene, farnesol and cholesterol. This sample was spotted on a TCL plate (Merck) and developed using heptane for 15 to 20 minutes. A band of squalene was cut from the plate to measure the radio activity by using a liquid scintillation counter. The data was expressed by a concentration (IC50) at which 50% of the radio activity of a control group was inhibited.
Preparation Method for Rat Liver Microsome
All the following operations were performed on ice and centrifugation was performed at 4° C. […] The protein concentration of the suspension was quantitated by the Bradford method and the suspension was adjusted to 20 mg/ml with the same solution and stored at −70° C.

Consider `CO[C@@H]1CN(c2ccc(C#CC3(O)CCCNC3)c(Cc3ccccc3)n2)C[C@H]1O` (stereo partly drawn) [Example 1, 3-[2-Benzyl-6-[(3R,4R)-3-hydroxy-4-methoxypyrrolidin-1-yl]-3-pyridyl]ethynyl-3-piperidinol], for which the IC50 stood at 0.45 nM in the assay with rat liver cell and 1.4 nM at Squalene synthase.

On Squalene synthase, `CO[C@@H]1CN(c2ccc(C#CC3(N)CCCCC3)c(Cc3ccccc3)n2)C[C@H]1O` [Example 7, 1-[2-Benzyl-6-[(3R,4R)-3-hydroxy-4-methoxypyrrolidin-1-yl]-3-pyridyl]ethynylcyclohexylamine] yielded an IC50 of 0.53 nM. Still for that read-out and setting: under `CO[C@H]1C(=O)N(c2ccc(C#CC3(N)CCCCC3)c(Cc3ccccc3)n2)C[C@H]1O` [Example 9, 1-[2-Benzyl-6-[(3R,4R)-4-hydroxy-3-methoxy-2-pyrrolidinon-1-yl]-3-pyridyl]ethynylcyclohexylamine] stands 0.78 nM. In the assay with rat liver cell, `CO[C@H]1CN(c2ccc(C#C[C@@]3(O)CN4CCC3CC4)c(Cc3ccccc3)c2)C[C@H]1OC` [Example 18, (3R)-3-[2-Benzyl-4-[(3R,4S)-3,4-dimethoxypyrrolidin-1-yl)phenyl]ethynyl-3-quinuclidinol] came in with an IC50 of 0.16 nM.
